Three compounds from article PMC2900060, “Antioxidant and hepatoprotective effects of the methanol extract of the leaves of Satureja macrostema” (Pharmacognosy Magazine, 2010) can be followed below.

Test [1] in a line: Inhibition of nitric oxide radical (sodium nitroprusside, Griess reaction). The following applies: concentration 50 μg/ml. For orientation: Griess reagent forms a coloured azo dye with nitrite.
Protocol: Nitric oxide generated from sodium nitroprusside in aqueous solution at physiological pH interacts with oxygen to produce nitrite ions, which were measured by the Griess reaction.[1213] The reaction mixture (3 ml) containing sodium nitroprusside (10 Mm) in phosphate buffered saline (PES) and SM and the reference compound in different concentrations (5, 10, 25, 50 and 100 μg) were incubated at 25°C for 150 min. In each 30 min, 0.5 ml of the incubated sample was removed and 0.5 ml of the Griess reagent (1% sulfanilamide, 0.1% naphthyl ethylene diamine dihydrochloride in 2% H3PO4) was added. The absorbance of the chromophore formed was measured at 546 nm. All the tests were performed in triplicate and the results were averaged. BHT was used as the reference compound. All the tests were performed in triplicate and the results were averaged. The percentage decrease in absorbance was calculated.[10] Quercetine was used as the standard.
Test [2] can be described thus: Inhibition of superoxide anion radical (NBT/NADH/PMS). The following applies: concentration 50 μg/ml. The method, then: Measurement of superoxide anion scavenging activity of SM was performed based on the method described by […][11] and slightly modified. About 1 ml of nitroblue tetrazolium (NBT) solution containing 156 μM NBT which is dissolved in 1.0 ml of phosphate buffer (100 mM, pH 7.4), 1 ml of NADH solution containing 468 μM of NADH which is dissolved in 1 ml of phosphate buffer (100 mM, pH 7.4) and 0.1 ml of various concentrations of SM and the reference compounds (5, 10, 25, 50 and 100 μg) were mixed and the reaction started by adding l00 μl of phenazine methosulphate (PMS) solution containing 60 μM of PMS l00 μl of phosphate buffer (100 mM, pH 7.4). The reaction mixture was incubated at 25°C for 5 min and the absorbance at 560 nm was measured against the control samples. All the tests were performed in triplicate and the results were averaged. The percentage decrease in absorbance was calculated.[10] Quercetine was used as the standard.

Test [3] can be described thus: Iron-chelating activity (ferrozine). The following applies: Fe2+-ferrozine, Table 2. As to the method:
After 5 min incubation, the reaction was initiated by 1.0 ml of 5.0 mM ferrozine. After 10 min of equilibrium, the absorbance at 562 nm was recorded. The controls contained all reaction reagents except extracts or positive control substance. Three experiments were performed and the average result was adopted. The iron-chelating activities were calculated from the absorbance of the control (Ac) and of the sample (As) using the following equation: Inhibition(%) = Ac −As × 100 Ac

Test [4] can be described thus: Inhibition of DPPH radical. The following applies: concentration 100 μg/ml (table head prints mg/ml for SM). The method, then:
The free radical scavenging activity of the extract was analyzed by the DPPH (1,1-- diphenyl-- 2--picryl hydrazyl) assay.[10] A total of 2 ml of the test extract, at concentrations ranging from 1 μg/ml to 100 μg/ml each, was mixed with 1 ml of 0.5 mM DPPH (in methanol). The absorbance at 517 nm was taken after 30 min of incubation in the dark at room temperature. The experiment was done in triplicate. The percentage antioxidant activity was calculated as follows: %Antioxidant Activity [AA] = l00 --[ { (Abssample -- Absblank) X 100 }/Abs ml of methanol plus 2.0 ml of the extract was used as the blank while 1.0 ml of the 0.3 mM DPPH solution plus 2.0 ml of methanol was used as the negative control. Ascorbic acid was used as the reference standard.
A general note: The DPPH test is a chemical assay of radical scavenging.

Structures are written as SMILES. ≈ marks a conversion by molar mass, not a printed value.

Regarding `O=c1c(O)c(-c2ccc(O)c(O)c2)oc2cc(O)cc(O)c12` [Quercetin], the Nitric oxide scavenging in test [1] is 93.8 ± 0.98 %. The Superoxide anion scavenging in test [2] was 90.87 ± 0.43 %.
As to `Cc1cc(C(C)(C)C)c(O)c(C(C)(C)C)c1` [BHT], in test [3], the “IC50 Ion-chelating” value was found to be 46.6 mg/mL (≈ 211 mM).
As to `O=C1O[C@H]([C@@H](O)CO)C(O)=C1O` [Ascorbic acid], in test [3], the “IC50 Ion-chelating” value was 49.3 mg/mL (≈ 280 mM). Besides, the DPPH scavenging was determined as 97 ± 0.52 % in test [4] and 97% in test [4] (listed as ascorbic acid).
